We go through 13 molecules from patent US20230181746A1, “BENZOYLHYDRAZIDE-DERIVED HDAC DEGRADERS AS THERAPEUTICS FOR TREATING CANCER AND OTHER HUMAN DISEASES” (University of Florida Research Foundation, Inc., priority 2020, published 2023).

The target of one assay is HDAC3 (Homo sapiens, UniProt O15379). Nature of the assay: HDAC3 degradation in breast cancer cell lines, Western blot. Type of assay: cell-based. On the set-up: endogenous in cells; host or cells: MDA-MB-468, T47D, MCF7. The following applies: for DC50: T47D cells, read-out: DC50, HDAC3 degradation potency. From the text: Data are presented as representative figures of two independent experiments.
Cells were lysed for WB with antibodies against the indicated proteins. Antibodies against acetylated histones at specific sites (H3K27 and H4K5) and acetyl-lysine were used to assess levels of histone acetylation.
Cells were lysed for WB. […] The indicated BC cell lines were exposed to DMSO, XZ9002, or XZ9002-NC at the indicated concentrations. Colonies were fixed and stained.
Cell lines were obtained from ATCC and subsequently authenticated. Cells were cultured with DMEM supplemented with 10% bovine calf serum, penicillin to 10 units/mL, and streptomycin to 10 μg/mL. For viability assays, 5,000 cells/well were seeded in 96-well plates. […] For colony formation assay, cells (˜1,000 cells/well) were seeded in a 24-well plate in quadruplicates. […] Medium was replaced with freshly prepared medium containing DMSO, XZ9002 or XZ9002-NC every five days until visible colonies appeared, typically in 15 to 20 days after initial cell seeding. Cells were fixed with 4% paraformaldehyde for 15 min and stained with 2% methylene blue in 20% ethanol for 30 min to 1 h. The cells were washed twice with distilled water and dried in air. For western blotting, cell cultures were exposed to compounds as indicated in relevant figures. Medium was removed from culture plate, and 1 x passive lysis buffer was then added, the plates were frozen at −80° C. overnight and thawed at room temperature. The total cell lysates were mixed with a one fifth volume of 6x SDS sample buffer, heated at 95° C. for 5 min and cooled on ice. The lysates were cleared by centrifugation and then subjected to SDS-PAGE and western blotting essentially as described.
A general note: A western blot detects proteins with antibodies after separation by electrophoresis.

The target in assay [1] is T1, HDAC3 (in complex with the deacetylase activation domain of the human NCOR2 (amino acids 395-498)) (Homo sapiens, UniProt O15379).
T1 construct: purchased BPS Bioscience 50003
Nature of the assay: In vitro HDAC activity assay (HDAC-Glo I/II), HDAC3. Type of assay: biochemical. The following applies: HDAC-Glo I/II; average of three independent assays ± standard deviation. The method, then: (§1) Purified HDAC1, HDAC2, and HDAC3 (in complex with the deacetylase activation domain of the human NCOR2 (amino acids 395-498)) were obtained from Enzo Life Sciences (HDAC1, catalog # BML-SE456-0050) and BPS Bioscience (HDAC2, catalog #50002 and HDAC3, catalog #50003), respectively. The enzyme activities were tested using the HDAC-Glo I/II reagents (Promega) according to a protocol provided by the manufacturer.

Another assay addresses HDAC1 (Homo sapiens, UniProt Q13547). The assay is described as follows: In vitro HDAC activity assay (HDAC-Glo I/II), HDAC1. The following applies: average of three independent assays ± standard deviation. More on the design: purchased Enzo Life Sciences BML-SE456-0050. The class given is biochemical. The method, then:
as §1

For a further assay, the target named is HDAC2 (Homo sapiens, UniProt Q92769). Nature of the assay: In vitro HDAC activity assay (HDAC-Glo I/II), HDAC2. The class given is biochemical. More on the design: purchased BPS Bioscience 50002. The following applies: average of three independent assays ± standard deviation. The method, then: as §1

Each structure is given as a SMILES string.

Sequence of HDAC1 (Q13547 whole entry): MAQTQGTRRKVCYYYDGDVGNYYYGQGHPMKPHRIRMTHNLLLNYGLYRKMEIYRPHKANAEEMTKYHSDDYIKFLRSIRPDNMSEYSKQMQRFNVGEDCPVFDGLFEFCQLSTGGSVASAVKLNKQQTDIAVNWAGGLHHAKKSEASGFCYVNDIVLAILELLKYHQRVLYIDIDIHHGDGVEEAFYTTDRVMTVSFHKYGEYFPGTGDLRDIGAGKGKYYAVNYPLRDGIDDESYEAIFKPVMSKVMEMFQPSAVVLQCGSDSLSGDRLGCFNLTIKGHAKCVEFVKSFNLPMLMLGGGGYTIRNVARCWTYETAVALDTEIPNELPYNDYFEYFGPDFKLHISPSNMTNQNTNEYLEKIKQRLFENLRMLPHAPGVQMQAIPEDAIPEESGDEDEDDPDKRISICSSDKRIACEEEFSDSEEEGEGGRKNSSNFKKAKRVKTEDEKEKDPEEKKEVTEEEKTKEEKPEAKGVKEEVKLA
T1 sequence (O15379 whole entry, the tested form may be a part): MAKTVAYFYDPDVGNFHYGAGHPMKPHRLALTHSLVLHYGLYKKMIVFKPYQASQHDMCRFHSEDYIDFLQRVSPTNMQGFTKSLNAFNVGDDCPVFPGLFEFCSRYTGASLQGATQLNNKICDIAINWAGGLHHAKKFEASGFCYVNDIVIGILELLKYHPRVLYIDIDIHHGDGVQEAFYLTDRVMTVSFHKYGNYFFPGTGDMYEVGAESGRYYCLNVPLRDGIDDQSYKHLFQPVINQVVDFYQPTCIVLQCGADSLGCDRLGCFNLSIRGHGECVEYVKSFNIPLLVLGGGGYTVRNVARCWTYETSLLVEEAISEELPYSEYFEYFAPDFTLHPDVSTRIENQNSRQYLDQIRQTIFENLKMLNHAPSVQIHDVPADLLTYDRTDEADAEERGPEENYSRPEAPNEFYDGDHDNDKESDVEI
T1 sequence (Q9Y618 395-498 partner limits assumed): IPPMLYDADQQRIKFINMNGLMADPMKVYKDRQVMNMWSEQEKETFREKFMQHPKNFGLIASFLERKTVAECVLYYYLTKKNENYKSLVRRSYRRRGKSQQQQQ
Sequence of HDAC3 (O15379 whole entry): as the sequence (O15379 whole entry, the tested form may be a part) above
Sequence of HDAC3 (Q9Y618 395-498 partner limits assumed): as the sequence (Q9Y618 395-498 partner limits assumed) above
Sequence of HDAC2 (Q92769 whole entry): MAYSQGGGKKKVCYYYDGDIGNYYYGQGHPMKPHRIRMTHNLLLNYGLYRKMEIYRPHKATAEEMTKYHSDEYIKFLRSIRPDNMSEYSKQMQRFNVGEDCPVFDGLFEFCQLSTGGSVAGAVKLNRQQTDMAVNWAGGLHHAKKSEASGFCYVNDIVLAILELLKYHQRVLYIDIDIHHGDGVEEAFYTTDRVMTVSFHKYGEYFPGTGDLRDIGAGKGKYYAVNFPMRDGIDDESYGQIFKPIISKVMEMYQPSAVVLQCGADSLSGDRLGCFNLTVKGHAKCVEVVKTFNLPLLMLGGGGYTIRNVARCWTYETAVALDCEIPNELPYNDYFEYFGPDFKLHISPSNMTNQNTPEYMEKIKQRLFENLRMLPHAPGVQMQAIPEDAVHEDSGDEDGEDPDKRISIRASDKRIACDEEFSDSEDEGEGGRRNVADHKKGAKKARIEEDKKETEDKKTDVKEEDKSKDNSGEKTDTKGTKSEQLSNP

One may read the DC50 as the concentration at which degradation of the target reaches its halfway point. Take `CCCNNC(=O)c1ccc(N2CCN(CCCCCCCCC(=O)N[C@H](C(=O)N3C[C@H](O)C[C@H]3C(=O)N[C@@H](C)c3ccc(-c4scnc4C)cc3)C(C)(C)C)CC2)cc1` [Compound 28d, (2S,4R)-1-((S)-3,3-dimethyl-2-(9-(4-(4-(2-propylhydrazine-1-carbonyl)phenyl)piperazin-1-yl)nonanamido)butanoyl)-4-hydroxy-N—((S)-1-(4-(4-methylthiazol-5-yl)phenyl)ethyl)pyrrolidine-2-carboxamide]: the DC50 at HDAC3 is below 100 nM.
Same read-out and setting: under `CCCNNC(=O)c1ccc(N2CCN(C(=O)CCCCCCC(=O)N[C@H](C(=O)N3C[C@H](O)C[C@H]3C(=O)N[C@@H](C)c3ccc(-c4scnc4C)cc3)C(C)(C)C)CC2)cc1` [Compound 27b, (2S,4R)-1-((S)-3,3-dimethyl-2-(8-oxo-8-(4-(4-(2-propylhydrazine-1-carbonyl)phenyl)piperazin-1-yl)octanamido)butanoyl)-4-hydroxy-N—((S)-1-(4-(4-methylthiazol-5-yl)phenyl)ethyl)pyrrolidine-2-carboxamide] stands below 100 nM.
A word on the IC50: it is the point on the concentration scale where inhibition reaches its midpoint. As for `CCCNNC(=O)c1ccc(-c2ccc(NC(=O)CCC(=O)N[C@H](C(=O)N3C[C@H](O)C[C@H]3C(=O)N[C@@H](C)c3ccc(-c4scnc4C)cc3)C(C)(C)C)cc2)cc1` [Compound 8a, N^1—((S)-1-((2S,4R)-4-hydroxy-2-(((S)-1-(4-(4-methylthiazol-5-yl)phenyl)ethyl)carbamoyl)pyrrolidine-1-yl)-3,3-dimethyl-1-oxobutan-2-yl)-N^4-(4′-(2-propylhydrazine-1-carbonyl)-[1,1′-biphenyl]-4-yl)succinimide], the half-maximal inhibitory concentration (IC50) in assay [1] was 140 ± 40 nM; against HDAC1, 300 ± 70 nM; on HDAC2 it was 1400 ± 140 nM.
On to `CCCNNC(=O)c1ccc(-c2ccc(NC(=O)CCCCCCC(=O)N[C@H](C(=O)N3C[C@@H](O)C[C@@H]3C(=O)N[C@@H](C)c3ccc(-c4scnc4C)cc3)C(C)(C)C)cc2)cc1` [XZ9002-NC, N^1—((S)-1-((2R,4S)-4-Hydroxy-2-(((S)-1-(4-(4-methylthiazol-5-yl)phenyl)ethyl)carbamoyl)pyrrolidin-1-yl)-3,3-dimethyl-1-oxobutan-2-yl)-N^5-(4′-(2-propylhydrazine-1-carbonyl)-[1,1′-biphenyl]-4-yl)octanediamide], for which the “HDAC3 degradation (in words)” value at HDAC3 (MDA-MB-468 cells (FIG. 3B)) is given as “did not induce HDAC3 degradation”.
As to `CCCNNC(=O)c1ccc(N2CCN(CCCCCCC(=O)N[C@H](C(=O)N3C[C@H](O)C[C@H]3C(=O)N[C@@H](C)c3ccc(-c4scnc4C)cc3)C(C)(C)C)CC2)cc1` [Compound 28b, (2S,4R)-1-((S)-3,3-dimethyl-2-(7-(4-(4-(2-propylhydrazine-1-carbonyl)phenyl)piperazin-1-yl)heptanamido)butanoyl)-4-hydroxy-N—((S)-1-(4-(4-methylthiazol-5-yl)phenyl)ethyl)pyrrolidine-2-carboxamide], the DC50 on HDAC3 was below 100 nM.
For `CCCNNC(=O)c1ccc(-c2ccc(NC(=O)COCCOCCNc3cccc4c3C(=O)N(C3CCC(=O)NC3=O)C4=O)cc2)cc1` (stereo not drawn) [Compound 7a], the IC50 in assay [1] came to 43 ± 18 nM; on HDAC1 it was 82 ± 25 nM; against HDAC2, 410 ± 14 nM.
For the molecule `CCCNNC(=O)c1ccc(-c2ccc(NC(=O)COCCOCCOCCOCCNc3cccc4c3C(=O)N(C3CCC(=O)NC3=O)C4=O)cc2)cc1` (stereo not drawn) [Compound 7c, 14-((2-(2,6-dioxopiperidin-3-yl)-1,3-dioxoisoindolin-4-yl)amino)-N-(4′-(2-propylhydrazine-1-carbonyl)-[1,1′-biphenyl]-4-yl)-3,6,9,12-tetraoxatetradecanamide], the values for the IC50 (in assay [1]; against HDAC1; at HDAC2) were 72 ± 15 nM, 125 ± 35 nM and 450 ± 70 nM, respectively. The “concentration at which HDAC3 is degraded” value at HDAC3 (PROTACs derived from CRBN, breast cancer cell lines) is 1.0 µM.
Take `CCCNNC(=O)c1ccc(N2CCN(CCCCCCCCCC(=O)N[C@H](C(=O)N3C[C@H](O)C[C@H]3C(=O)N[C@@H](C)c3ccc(-c4scnc4C)cc3)C(C)(C)C)CC2)cc1` [Compound 28e, (2S,4R)-1-((S)-3,3-dimethyl-2-(10-(4-(4-(2-propylhydrazine-1-carbonyl)phenyl)piperazin-1-yl)decanamido)butanoyl)-4-hydroxy-N—((S)-1-(4-(4-methylthiazol-5-yl)phenyl)ethyl)pyrrolidine-2-carboxamide]: the DC50 at HDAC3 was below 1000 nM.
For the molecule `CCCNNC(=O)c1ccc(-c2ccc(NC(=O)CCCCCCCCC(=O)N[C@H](C(=O)N3C[C@H](O)C[C@H]3C(=O)N[C@@H](C)c3ccc(-c4scnc4C)cc3)C(C)(C)C)cc2)cc1` [Compound 8d, N^1—((S)-1-((2S,4R)-4-Hydroxy-2-(((S)-1-(4-(4-methylthiazol-5-yl)phenyl)ethyl)carbamoyl)pyrrolidin-1-yl)-3,3-dimethyl-1-oxobutan-2-yl)-N^10-(4′-(2-propylhydrazine-1-carbonyl)-[1,1′-biphenyl]-4-yl)decanediamide], the half-inhibitory concentration (IC50) was found to be 550 ± 70 nM in assay [1], 1500 ± 140 nM against HDAC1 and 1420 ± 250 nM at HDAC2.
On the same counts, the results for `CCCNNC(=O)c1ccc(-c2ccc(NC(=O)COCCOCCOCCNc3cccc4c3C(=O)N(C3CCC(=O)NC3=O)C4=O)cc2)cc1` (stereo not drawn) [Compound 7b, 2-(2-(2-(2-((2-(2,6-dioxopiperidin-3-yl)-1,3-dioxoisoindolin-4-yl)amino)ethoxy)ethoxy)ethoxy)-N-(4′-(20propylhydrazine-1-carbonyl)[1,1′-biphenyl]-4-yl)acetamide] are 38 ± 23 nM, 90 ± 14 nM and 400 ± 30 nM.
For the molecule `CCCNNC(=O)c1ccc(N2CCN(C(=O)CCCCCCCCC(=O)N[C@H](C(=O)N3C[C@H](O)C[C@H]3C(=O)N[C@@H](C)c3ccc(-c4scnc4C)cc3)C(C)(C)C)CC2)cc1` [Compound 27c, (2S,4R)-1-((S)-3,3-dimethyl-2-(10-oxo-10-(4-(4-(2-propylhydrazine-1-carbonyl)phenyl)piperazin-1-yl)decanamido)butanoyl)-4-hydroxy-N—((S)-1-(4-(4-methylthiazol-5-yl)phenyl)ethyl)pyrrolidine-2-carboxamide], the DC50 on HDAC3 is below 100 nM.
Still for that read-out and setting: to `CCCNNC(=O)c1ccc(N2CCN(CCCCCC(=O)N[C@H](C(=O)N3C[C@H](O)C[C@H]3C(=O)N[C@@H](C)c3ccc(-c4scnc4C)cc3)C(C)(C)C)CC2)cc1` [Compound 28a, (2S,4R)-1-((S)-3,3-dimethyl-2-(6-(4-(4-(2-propylhydrazine-1-carbonyl)phenyl)piperazin-1-yl)hexanamido)butanoyl)-4-hydroxy-N—((S)-1-(4-(4-methylthiazol-5-yl)phenyl)ethyl)pyrrolidine-2-carboxamide] belongs below 100 nM.
Consider `CCCNNC(=O)c1ccc(N2CCN(C(=O)CCCCC(=O)N[C@H](C(=O)N3C[C@H](O)C[C@H]3C(=O)N[C@@H](C)c3ccc(-c4scnc4C)cc3)C(C)(C)C)CC2)cc1` [Compound 27a, (2S,4R)-1-((S)-3,3-dimethyl-2-(6-oxo-6-(4-(4-(2-propylhydrazine-1-carbonyl)phenyl)piperazin-1-yl)hexanamido)butanoyl)-4-hydroxy-N—((S)-1-(4-(4-methylthiazol-5-yl)phenyl)ethyl)pyrrolidine-2-carboxamide], for which, on HDAC3, the DC50 was below 1000 nM.
